Reference: US10118954B2, “Apelin analogues” (University of Ulster, priority 2014, dated 2018)
Where no end group is shown, it is not given here.

Assays:
[1] = Degradation of apelin peptides by plasma from fasted normal NIH Swiss mice (rp-HPLC, MALDI-TOF MS); assay type: in vitro ADME
Method: Degradation of Apelin Peptides by Plasma from Fasted Normal NIH Swiss Mice […] The enzymatic reaction was stopped by adding 50 μl of 10% TFA (0.1% v/v; Sigma-Aldrich Ltd, (Poole, Dorset, UK) and frozen at -20° C. until separation. The terminated reaction products were then applied to an analytical Vydac C-8 column (4.6×150 mm; Phenomenex, Macclesfield, Cheshire, UK) for rp-HPLC analysis. The absorbance was monitored at 214 nm using a […] UV 2000 detector (Thermoquest Limited, Manchester, UK) and the traces were recorded by Thermo Electron ChromQuest data collection software (version 4). HPLC peak fractions were collected manually and subjected to MALDI-TOF mass spectrometry for peptide identification. Degradation profile of various apelin-13 related analogues: plasma incubations (4 h) were separated on a Vydac C-8 analytical HPLC column and all peaks were collected prior to analysis by MALDI-TOF mass spectrometry. Degradation fragments, actual molecular weights (Mr) and retention times (RT) are shown. Theoretical molecular weights of each fragment are shown in brackets. […] Degradation fragments, theoretical molecular weights (Mr) and retention times (RT) are shown. Theoretical molecular weights of each fragment are shown in brackets.

[2] = tested on: NIH Swiss mice fed a high-fat diet for 150 days; test: Acute and delayed i.p. glucose tolerance test, blood glucose and plasma insulin; assay type: in vivo; details: for Effect on the glucose lowering properties of (Tyr^13)apelin-13 and apelin-13-amide: administered in combination, each 25 nmol/kg
Method: Plasma glucose and plasma insulin concentrations were measured prior to and after i.p. administration of glucose alone (18 mmol/kg body weight), or in combination with apelin analogues (25 nmol/kg body weight) in 18 h fasted mice fed a high-fat diet for 150 days. Values represent mean±SEM for eight mice (n=8). *P<0.05, **P<0.01 and ***P<0.001 compared to glucose alone. FIG. 6 illustrates effect of i.p. administration of glucose alone (18 mmol/kg body weight), ([…])apelin-13 and ([…])apelin-13 alone or in combination (each 25 nmol/kg body weight) on (A) blood glucose and (B) plasma insulin in 18 h fasted mice fed a high-fat diet for 150 days. Values represent mean±SEM for eight mice (n=8). *p<0.05 and **p<0.01 compared to glucose alone, ^+P<0.05 compared to ([…])apelin-13, ^∇P<0.05 and ^∇∇P<0.01 compared to ([…])apelin-13. FIG. 10 illustrates tests conducted 2 h after administration of apelin related analogues (25 nmol/kg body wt) in 18 h fasted mice fed a high-fat diet for 150 days. (A) Blood glucose and (B) plasma insulin was measured before and after i.p. administration of glucose (18 mmol/kg body wt) alone or in combination with apelin analogues. Values represent mean±SEM for eight mice (n=8). *P<0.05 and **P<0.01 compared to glucose alone. FIG. 11 illustrates tests conducted 8 h after administration of apelin related analogues (25 nmol/kg body wt) in 18 h fasted mice fed a high-fat diet for 150 days. (A) Blood glucose and (B) plasma insulin was measured before and after i.p. administration of glucose (18 mmol/kg body wt) alone or in combination with apelin analogues. Values represent mean±SEM for eight mice (n=8). *P<0.05 and **P<0.01 compared to glucose alone. FIG. 12 illustrates acute effects of fatty acid modified apelin analogues on glucose-lowering and insulin release in high fat fed Swiss NIH mice with dietary-induced diabetes. (A) Blood glucose and (B) plasma insulin concentrations were measured prior to and after i.p. administration of glucose alone (18 mmol/kg body weight), or in combination with apelin analogues (25 nmol/kg body weight) in 18 h fasted mice fed a high-fat diet for 150 days. Values represent mean±SEM for eight mice (n=8). *P<0.05, compared to glucose alone. FIG. 13 illustrates tests conducted 16 h after administration of fatty acid apelin analogues (25 nmol/kg body wt) in mice fed a high-fat diet for 150 days. (A) Blood glucose and (B) plasma insulin was measured before and after i.p. administration of glucose (18 mmol/kg body wt) alone or in combination with apelin analogues. Values represent mean±SEM for eight mice (n=8). *P<0.05, **P<0.01 and ***P<0.001 compared to glucose alone. NIH Swiss mice (Harlan UK Ltd., Blackthorne, UK) were derived from a nucleus colony obtained from the National Institute of Health, Bethesda, Md., USA. One group of mice were maintained on a standard rodent diet (10% fat, 30% protein, 60% carbohydrate; percent of total energy 12.99 kJ/g, Trouw Nutrition, Cheshire, UK) and used as a model of normal glycaemia. Other NIH Swiss mice were maintained on a high fat diet (45% fat, 20% protein, 35% carbohydrate; percent of total energy 26.15 […], UK) from 8 weeks of age for 150 days to produce a model of diet induced obesity-diabetes. […] All mice were housed in an air-conditioned room maintained at 22±2° C. with a 12 h light: 12 h dark cycle (08:00-20:00 h), were singly caged, and selected for experimental groups according to body weight and non-fasted blood glucose. Drinking water and diet were freely available. All animal studies were performed in accordance with the UK Animals (Scientific Procedures) Act 1986. For acute in vivo studies, blood samples were collected from the cut tip of the tail vain of fasted, conscious mice into fluoride/heparin coated glucose microcentrifuge tubes (Sarstedt, Germany) immediately prior to (t=0) and at 15, 30, 60 and 105 min following i.p. injection of glucose ([…]).

[3] = NIH Swiss, mouse, plasma, pH 7.4
[4] = acute, alone and in combination, each 25 nmol/kg i.p. with glucose, Table 5
[5] = acute, peptide 25 nmol/kg i.p. with glucose 18 mmol/kg, Table 4
[6] = following a 2 h delay, 25 nmol/kg
[7] = following a 8 h delay, 25 nmol/kg
[8] = fatty acid derived agonists, 16 h delayed i.p. glucose tolerance test, 25 nmol/kg
[9] = fatty acid derived agonists, acute i.p. glucose tolerance test, 25 nmol/kg

For `CSCC[C@H](NC(=O)[C@@H]1CCCN1C(=O)CNC(=O)[C@H](CCCCN)NC(=O)[C@H](Cc1c[nH]cn1)NC(=O)[C@H](CO)NC(=O)[C@H](CC(C)C)NC(=O)[C@H](CCCNC(=N)N)NC(=O)[C@@H]1CCCN1C(=O)[C@H](CCCNC(=N)N)NC(=O)[C@@H](N)CCC(N)=O)C(=O)N1CCC[C@H]1C(=O)N[C@@H](C)C(=O)O` [(Ala^13)apelin-13, reference compound], which “Degradation fragment, Peak 1” value [1] is on record?
The value was “(Ala^13)apelin-13 (1-8)”.

What about the “Degradation fragment, Peak 2” value [1] of the same molecule?
The value was “(Ala^13)apelin-13 (1-11)”.

And the “Rank order of stability” value [1]?
Its value is 8.

And the half-life at 263 µg/mL [1, 3]?
Its half-life at 263 µg/mL is 10.3 h.

What about the remaining at 4 h, 263 µg/mL [1, 3] of the same molecule?
The remaining at 4 h, 263 µg/mL was 70.5 ± 2.2%.

And the “Rank order on basis of anti-hyperglycaemic efficacy” value (“Rank order on basis” below) ([2]; acute, Table 4)?
The value was 9.

And the “Glucose lowering, where glucose alone = 100%” value [2, 4]?
Its value is 118% (*).

And the “Insulin secretion, where glucose alone = 100%” value [2, 4]?
The value was 74% (*).

And the “Blood glucose as percent of glucose-alone control (lower = stronger glucose lowering)” value [2, 5]?
Its value is 118% (*).

And the “Insulin secretion, where glucose alone = 100%” value [2, 5]?
The value was 74% (**).

And the “Effect on the glucose lowering properties of (Tyr^13)apelin-13 and apelin-13-amide” value [2]?
The value was “blocked the glucose lowering properties”.

Which results are given for `CSCC[C@H](NC(=O)[C@@H]1CCCN1C(=O)CNC(=O)[C@H](CCCCN)NC(=O)[C@H](Cc1c[nH]cn1)NC(=O)[C@H](CO)NC(=O)[C@H](CC(C)C)NC(=O)[C@H](CCCNC(=N)N)NC(=O)[C@@H]1CCCN1C(=O)[C@H](CCCNC(=N)N)NC(=O)[C@@H](N)CCC(N)=O)C(=O)N1CCC[C@H]1C(=O)N[C@@H](Cc1ccc(O)cc1)C(=O)O` [(Tyr^13)apelin-13]?
Degradation fragment, Peak 1 [1]: (Tyr^13)apelin-13 (1-7); Degradation fragment, Peak 2 [1]: (Tyr^13)apelin-13 (1-12); Rank order of stability [1]: 10; half-life at 263 µg/mL [1, 3]: 8.5 h; remaining at 4 h, 263 µg/mL [1, 3]: 76.7 ± 1.3%; Rank order on basis of anti-hyperglycaemic efficacy ([2]; acute, Table 4): 4; Glucose lowering, where glucose alone = 100% [2, 4]: 77% (*); Insulin secretion, where glucose alone = 100% [2, 4]: 131% (*); Blood glucose as percent of glucose-alone control (lower = stronger glucose lowering) [2, 5]: 77% (*); Insulin secretion, where glucose alone = 100% [2, 5]: 131% (*); Rank order on basis of anti-hyperglycaemic efficacy ([2]; following a 2 h delay): 4; Blood glucose as percent of glucose-alone control (lower = stronger glucose lowering) [2, 6]: 85% ^; Insulin secretion, where glucose alone = 100% [2, 6]: 116% ^; Rank order on basis of anti-hyperglycaemic efficacy ([2]; following a 8 h delay): 4; Blood glucose as percent of glucose-alone control (lower = stronger glucose lowering) [2, 7]: 91% ^; Insulin secretion, where glucose alone = 100% [2, 7]: 104%

Which results are given for `CSCC[C@H](NC(=O)[C@@H]1CCCN1C(=O)CNC(=O)[C@H](CCCCN)NC(=O)[C@H](Cc1c[nH]cn1)NC(=O)[C@H](CO)NC(=O)[C@H](CC(C)C)NC(=O)[C@H](CCCNC(=N)N)NC(=O)[C@@H]1CCCN1C(=O)[C@H](CCCNC(=N)N)NC(=O)[C@@H](N)CCC(N)=O)C(=O)N1CCC[C@H]1C(=O)N[C@H](C(=O)O)C(C)C` [(Val^13)apelin-13]?
Degradation fragment, Peak 1 [1]: (Val^13)apelin-13 (1-12); Rank order of stability [1]: 11; half-life at 263 µg/mL [1, 3]: 7.7 h; remaining at 4 h, 263 µg/mL [1, 3]: 66.5 ± 1.1%; Rank order on basis of anti-hyperglycaemic efficacy ([2]; acute, Table 4): 10; Glucose lowering, where glucose alone = 100% [2, 4]: 124% (**); Insulin secretion, where glucose alone = 100% [2, 4]: 68% (**); Blood glucose as percent of glucose-alone control (lower = stronger glucose lowering) [2, 5]: 124% (**); Insulin secretion, where glucose alone = 100% [2, 5]: 68% (*); Effect on the glucose lowering properties of (Tyr^13)apelin-13 and apelin-13-amide [2]: blocked the glucose lowering properties

For `CSCC[C@H](NC(=O)[C@@H]1CCCN1C(=O)CNC(=O)[C@H](CCCCN)NC(=O)[C@H](Cc1c[nH]cn1)NC(=O)[C@H](CO)NC(=O)[C@H](CC(C)C)NC(=O)[C@H](CCCNC(=N)N)NC(=O)[C@@H]1CCCN1C(=O)[C@@H](N)CCCNC(=N)N)C(=O)N1CCC[C@H]1C(=O)N[C@@H](Cc1ccccc1)C(=O)O` [Apelin-12, reference compound], which “Rank order of stability” value [1] is on record?
The value was 13.

And the remaining at 4 h, 263 µg/mL [1, 3]?
Its remaining at 4 h, 263 µg/mL is 39.5 ± 1.9%.

And the half-life ([1]; mouse, plasma)?
The half-life was 3.4 h.

With `CCCCCCCCCCCCCCCC(=O)N[C@@H](CCC(=O)NCCCC[C@H](NC(=O)[C@H](Cc1c[nH]cn1)NC(=O)[C@H](CO)NC(=O)[C@H](CC(C)C)NC(=O)[C@H](CCCNC(=N)N)NC(=O)[C@@H]1CCCN1C(=O)[C@H](CCCNC(=N)N)NC(=O)[C@@H](N)CCC(N)=O)C(=O)NCC(=O)N1CCC[C@H]1C(=O)N[C@@H](CCSC)C(=O)N1CCC[C@H]1C(=O)N[C@@H](Cc1ccc(O)cc1)C(=O)O)C(=O)O` [Lys^8GluPAL(Tyr^13)apelin-13] as the molecule, how does the “Rank order of stability” value [1] read?
Its value is “=1”.

What about the “Half-life (t1/2)” value ([1]; NIH Swiss, mouse, plasma, 263 µg/mL, pH 7.4) of the same molecule?
Its value is over 24 h.

And the half-life at 263 µg/mL [1, 3]?
The half-life at 263 µg/mL was over 24 h.

What about the remaining at 4 h, 263 µg/mL [1, 3] of the same molecule?
Its remaining at 4 h, 263 µg/mL is 100%.

What about the “Rank order on basis” value ([2]; fatty acid derived agonists, 16 h delay) of the same molecule?
The value was 3.

What about the “Blood glucose as percent of glucose-alone control (lower = stronger glucose lowering)” value [2, 8] of the same molecule?
Its value is 91% ^.

And the “Insulin secretion, where glucose alone = 100%” value [2, 8]?
Its value is 126% (*).

What about the “Rank order on basis” value ([2]; fatty acid derived agonists, acute) of the same molecule?
The value was 3.

What about the “Glucose lowering, where glucose alone = 100%” value [2, 9] of the same molecule?
Its value is 93%.

What about the “Insulin secretion, where glucose alone = 100%” value [2, 9] of the same molecule?
The value was 104%.

Which “Degradation fragment, Peak 1” value [1] does the source give for `CSCC[C@H](NC(=O)[C@@H]1CCCN1C(=O)CNC(=O)[C@H](CCCCN)NC(=O)[C@H](Cc1cnc[nH]1)NC(=O)[C@H](CO)NC(=O)[C@H](CC(C)C)NC(=O)[C@H](CCCNC(=N)N)NC(=O)[C@@H]1CCCN1C(=O)[C@H](CCCNC(=N)N)NC(=O)[C@@H]1CCC(=O)N1)C(=O)N1CCC[C@H]1C(=O)N[C@@H](C)C(=O)O` [pGlu(Ala^13)apelin-13, pGlu (Ala^13)apelin-13] here?
Its value is “(1-7)”.

What about the “Rank order of stability” value [1] of the same molecule?
Its value is 6.

And the half-life at 263 µg/mL [1, 3]?
Its half-life at 263 µg/mL is 11.1 h.

And the remaining at 4 h, 263 µg/mL [1, 3]?
The remaining at 4 h, 263 µg/mL was 74.4 ± 5.2%.

What about the “Rank order on basis” value ([2]; acute, Table 4) of the same molecule?
The value was 7.

What about the “Blood glucose as percent of glucose-alone control (lower = stronger glucose lowering)” value [2, 5] of the same molecule?
The value was 110% ^.

What about the “Insulin secretion, where glucose alone = 100%” value [2, 5] of the same molecule?
Its value is 86% (*).

For “LVQPRGSRNGPGPWQGGRRKFRRQRPRLSHKGPMPF [Apelin-36, reference compound]”, which “Rank order of stability” value [1] is on record?
The value was 15.

And the half-life at 263 µg/mL [1, 3]?
The half-life at 263 µg/mL was 1.3 h.

And the remaining at 4 h, 263 µg/mL [1, 3]?
The remaining at 4 h, 263 µg/mL was 5.5 ± 0.6%.
